Data set [1] can be described thus: Pharmacokinetic test in cynomolgus monkeys. The class given is in vivo. How it is done:
With cynomolgus monkeys as test animals, the plasma concentrations of the compound of formula (I) at different time points after administration by injection were determined by LC/MS/MS. The pharmacokinetic performance of the compound was studied in cynomolgus monkeys and its pharmacokinetic characteristics were evaluated.
A certain amount of the test compound was weighed and prepared into a solution at pH 4.0 with 20 mmol/L sodium dihydrogen phosphate for later use. • 1.1 Administration Intravenous drip, injection time: about 30 min, administration dose: 3.54 mg/kg, administration concentration: […], and administration volume: 5 mL/kg. • 1.2 Operation
Blood was collected from femoral vein before administration and 5 min, 0.25 h, 0.5 h, 1 h, 2 h, 4 h, 6 h, 8 h, 10 h and 24 h after administration, about 0.6 mL for each sample. The blood samples were anticoagulated with sodium heparin and placed on ice immediately after collection. The blood samples were placed in marked centrifuge tubes after collection, and plasma was isolated by centrifugation (centrifugation conditions: 2200 g of centrifugal force, 10 min, 2-8° C.).
The contents of the compound of formula (I) and rolapitant in the plasma samples were determined by LC/MS/MS. • 1.3 Pharmacokinetic parameters

The nature of data set [2]: Water solubility at different pH values. The class given is physicochemical. As for the experimental part:
• 1.1 Preparation of reagent • Reagent: NaH2PO4·2H2O • 1.2 Preparation method
The preparation according to 100 mL specification is as follows: • pH=3.0: phosphate buffer: 100 mL of 2 mmol/L NaH2PO4, adjusted to pH 3.0 with 0.1 M H3PO4. • pH=4.0: phosphate buffer: 100 mL of 2 mmol/L NaH2PO4, […] 100 mL of 2 mmol/L Na2HPO4, adjusted to pH 9.0 with 0.1 M NaOH. • 1.3 Test method
A proper amount of a test compound was weighed, and the solution was added in small batches. The mixture was stirred until the test compound was dissolved. The content of the compound in the solution was determined. The data are shown in Table 1. • 2.1 Stability test of compound
1 mg of the sample was weighed and added to a vial. The vial was placed in a vacuum bag, which was vacuumized and placed in a container filled with allochroic silica gel. The container was sealed. Two parts were prepared in parallel. Adequate parts were prepared according to sampling time points, and the two parts for each sampling time point were placed at 4° C. and room temperature, respectively. The solubility of the compound of formula (I) was determined at different pH values.

Another data set has as its system red blood cells (RBCs). Nature of the data set: Hemolytic effect on rabbit red blood cell suspension. The data set is classed as cell-based. Particulars: 2% rabbit RBC suspension; test sample in PBS (pH 7.4 or pH 5), 0.4-2 mg/mL; concentration up to 2 mg/mL. How it is done:
10 mL of red blood cells (RBCs) were randomly collected from the jugular vein or central auricular artery of a rabbit (EDTA whole blood), placed in a conical flask with glass beads, and shaken for 10 min to remove fibrinogen, resulting in defibrinated blood. 10 volumes of sodium chloride injection were added. The mixture was shaken uniformly and centrifuged at 1500 rpm for 10 min, and the supernatant was removed. […] The obtained red blood cells were prepared into 2% (v/v) suspension with sodium chloride injection for later use.
A test sample (the compound of formula (I)) was dissolved in PBS (pH 7.4 or pH 5), and the solution was filtered and prepared to the concentrations of 0.4 mg/mL, 0.8 mg/mL, 1.2 mg/mL, 1.6 mg/mL, and 2 mg/mL for later use.
A certain amount of the test sample solution was added to the above […] for testing in the supernatant.
The hemolytic effect of the compound provided by the present disclosure was determined by this method.
Rolapitant emulsion (formula: 4.4% polyethylene glycol 15-hydroxystearate, 1.1% medium chain triglyceride, and 0.66% soybean oil) was prepared by reference to the method described in CN102573475, and prepared with PBS to concentrations of 0.18 mg/mL, 0.09 mg/mL, 0.045 mg/mL, 0.023 mg/mL, 0.011 mg/mL, […] for later use.
The hemolytic effect was determined by the method described in Test Example 2.

Read-outs that look alike come from different tables or passages of the source.

The half-life is the time in which the quantity being followed falls by half. A high value points to slow decline. Broadly, the solubility is the dissolved amount per volume that the medium holds.

In data set [1] (cynomolgus monkey, analyte compound of formula (I) in plasma, intravenous drip about 30 min, 3.54 mg/kg compound of formula (I)), `C[C@@H](OC[C@@]1(c2ccccc2)CC[C@]2(CCC(=O)N2)CN1C(=O)OCOP(=O)(O)O)c1cc(C(F)(F)F)cc(C(F)(F)F)c1` [compound of formula (I)] gave a half-life of 28.2 min. In addition, in data set [1] (cynomolgus monkey, analyte compound of formula (I) in plasma, intravenous drip about 30 min, 3.54 mg/kg compound of formula (I), read-out: AUC0-24 h), the AUC(0-t) is 1430 ng·h/mL. Besides, the MRT inf in data set [1] (cynomolgus monkey, analyte compound of formula (I) in plasma, intravenous drip about 30 min, 3.54 mg/kg compound of formula (I), read-out: MRT 0-∞) was found to be 15.6 min. The “Conversion of prodrug into active metabolite rolapitant” value in data set [1] (cynomolgus monkeys, intravenous drip 3.54 mg/kg) is “quickly converted into the active metabolite rolapitant”. The solubility is 19.8 mg/mL in data set [2] (pH 7.4, thermodynamic from solid, pH 7.4, read-out: Saturated solubility); 26 mg/mL in data set [2] (pH 7.4, thermodynamic from solid, pH 7.4, read-out: Solubility); 21.4 mg/mL in data set [2] (phosphate buffer, pH 9, aqueous buffer, thermodynamic from solid, pH 9.0, read-out: Saturated solubility); 28 mg/mL in data set [2] (phosphate buffer, pH 9, aqueous buffer, thermodynamic from solid, pH 9.0, read-out: Solubility). For the same compound, the Hemolytic effect result with red blood cells (RBCs) is reported as “no hemolytic effect”.

These data come from patent publication US20240016822A1, “USE OF NK1 ANTAGONIST PRODRUG COMPOUND IN COMBINATION WITH 5-HT3 RECEPTOR ANTAGONIST” (Shanghai Shengdi Pharmaceutical Co., Ltd., priority 2020, published 2024).
